Values joined by “and” are separate entries in the source; they are usually repeats but may differ in a detail not shown here. Identical values can stand only once.

Broadly, the IC50 is the concentration that inhibits the measured activity by half. A higher IC50 goes with weaker potency.

This test relates to P. falciparum 3D7 growth, pLDH absorbance. The test is described as follows: blood-stage malaria parasite growth potency – strain 3D7, dose response (AID 2305).
As to `c1ccc(COc2ccc(Cn3ccc(-c4ccc(-n5ccnc5)cc4)n3)cc2)cc1` (tested in a mixture with another compound), the half-maximal inhibitory concentration (IC50) is 1020 nM.

The compound `O=C(Nc1ccc(Cl)cc1)Nc1ccc(-c2cccc(-c3nc4ccccc4[nH]3)c2)cc1` gave an IC50 of 160 nM.

Take `O=C(Nc1ccc(-c2nc3ccccc3[nH]2)cc1)C1CCCN(CC2CC2)C1` (centres undefined): the IC50 is 950 nM.

Regarding `O=C(/C=C/c1ccc(Cl)cc1Cl)NCCCCCN1CCC(c2c[nH]c3ccccc23)CC1`, the concentration for half-maximal inhibition (IC50) came to 940 nM.

In turn, `COc1ccc(N2CCN(CCCCNC(=O)c3ccc(NC(=O)c4ccc(C(F)(F)F)cc4)cc3)CC2)c(OC)c1` gave an IC50 of 590 nM.

In turn, `CN(Cc1ccc(-c2ccc(C(F)(F)F)cc2)cc1)C(=O)Cn1c(CCc2cccc(F)c2F)cc(=O)c2ccc(OCCCN3CCCCC3)cc21` gave an IC50 of 710 nM.

Compound `CCCCN1CCCC[C@H]1[C@@H](O)c1ccnc2ccc(OCC)cc12` had an IC50 of 770 nM.

In the case of `CC(=O)Nc1ncc(C(=O)Nc2cccc(-c3ccc(-c4nc5ccc(C(F)(F)F)cc5[nH]4)cc3)c2)s1`, the 50% inhibitory concentration (IC50) came to 590 nM.

In the case of `COc1ccc(C=CC(=O)NC2CCC(CN3CCC(c4c[nH]c5ccccc45)CC3)CC2)cc1OC` (centres undefined), the IC50 is 840 nM and 800 nM.

In the case of `CN(C(=O)Nc1ccc(F)cc1)C1CCN(CCCCCNC(=O)/C=C/c2ccc(Cl)c(Cl)c2)CC1`, the concentration for half-maximal inhibition (IC50) stood at 890 nM.

With `CCn1c(Sc2ccc(C#N)c([N+](=O)[O-])c2)nnc1-c1cccc(Cl)c1`, the IC50 was found to be 450 nM.

Compound `OC(CNC1CCCCC1)Cn1c2ccccc2c2ccccc21` (centres undefined) displayed an IC50 of 990 nM.

`O=C(NCC(CCN1CCC(c2c[nH]c3ccccc23)CC1)c1ccccc1)Nc1ccc(Cl)c(Cl)c1` (centres undefined) registered an IC50 of 830 nM.

The compound `COc1ccc2nccc(NN=Cc3cccc(C)n3)c2c1` had a concentration for half-maximal inhibition (IC50) of 760 nM.

The compound `Cc1cc(NC(=O)Nc2ccc(N(C)C)cc2)c2cc(Cl)ccc2n1` yielded an IC50 of 860 nM.

`O=C(Nc1ccc2c(c1)CNCC2)c1ccc(-c2ccc(Cl)cc2)cc1`: the concentration for half-maximal inhibition (IC50) stood at 660 nM.

`O=S(=O)(NC1CCCCN(Cc2ccccc2O)C1)c1ccc(C(F)(F)F)cc1` (centres undefined) returned an IC50 of 1300 nM.

`CCCNCc1ccc(-c2ccc(CN(CCOC)C(=O)c3cnc(C)cn3)cc2)nc1` returned an IC50 of 1250 nM.

Compound `Cc1ccc(-c2cc(C(=O)Nc3ccc(S(=O)(=O)N(C)Cc4ccccc4)cc3)[nH]n2)c(O)c1` gave an IC50 of 850 nM.

Take `Cc1cc(=O)c(-c2ccc(S(=O)(=O)c3ccc(Cl)cc3)cc2)c(C)[nH]1`: the IC50 was found to be 880 nM.

In turn, `CNC(=O)c1ccc2[nH]cc(C3CCN(CC4CCN(C(=O)/C=C/c5ccc(Cl)c(Cl)c5)CC4)CC3)c2c1` returned an IC50 of 1520 nM.

For `c1ccc(CNc2nc(NCCc3cnc[nH]3)nc(N3CCCC4CCCCC43)n2)cc1` (centres undefined), the 50% inhibitory concentration (IC50) worked out at 830 nM.

For the compound `CC[C@H]1CN2CC[C@H]1C[C@H]2C(O)c1cc(OC)nc2ccccc12` (some centres undefined), the IC50 is 140 nM.

In the case of `CCOc1ccc(C(C)NC(=O)c2ccc(OC)c(Br)c2)cc1OCC` (centres undefined), the IC50 was 710 nM.

Compound `Cn1ncc2c3c(CCN4CCC(NCc5cc6c(cn5)OCC6)CC4)c(Cl)cnc3ccc21` showed an IC50 of 880 nM.

On to `Cc1cc(Nc2ccc(O)cc2)nc2cccc(O)c12`, for which the half-inhibitory concentration (IC50) was 740 nM.

Compound `CN(C)C(=O)c1ccc(CN(Cc2cccc(OC(C)(C)C)c2)Cc2ccc3c(c2)OCCO3)cc1` showed an IC50 of 570 nM.

`Cc1ccc2[nH]cc(/C=C/C(=O)NC3CCC(CCN4CCc5ccc(C#N)cc5CC4)CC3)c2c1` (centres undefined): the IC50 came to 920 nM.

Consider `Cn1cnc2nc(NCCc3ccccc3)nc(NCc3cccc4ccccc34)c21`, for which the IC50 is 330 nM.

`Cc1[nH]c(C)c(-c2cc3ccccc3o2)c(=O)c1Cl` displayed an IC50 of 1720 nM.

Consider `COc1ccc(N2CCN(CCCCNC(=O)c3ccc(NC(=O)c4cc(Cl)cc(Cl)c4)cc3)CC2)c(OC)c1`, for which the IC50 worked out at 300 nM.

As to `NC(N)=NCC=C(c1ccccc1)c1ccccc1`, the IC50 was found to be 990 nM.

`O=C(NCCCN1CCCCC1)c1ccc(Nc2nccc(Nc3ccc(Oc4ccccc4)cc3)n2)cc1` showed an IC50 of 630 nM.

Turning to `COc1ccc(NC(=O)Nc2cccc(-c3cccc(-c4nc5c(C)cccc5[nH]4)c3)c2)cc1`, the IC50 is 400 nM.

On to `O=C(NCCCCN1CCN(c2cccc(Cl)c2Cl)CC1)c1ccc2c(c1)CCN(C1CCC1)CC2`, for which the half-inhibitory concentration (IC50) was determined as 750 nM.

With `O=C(Nc1ccc(-c2ccc(CN3CCNCC3)cc2)cc1)c1cccc(Cl)c1`, the half-inhibitory concentration (IC50) was found to be 890 nM.

The compound `CC(=O)Nc1ccccc1OCc1cc2cc(C(=O)N3CCC(N4C(=O)OCc5ccccc54)CC3)ccc2o1` displayed a concentration for half-maximal inhibition (IC50) of 240 nM.

As for `COc1ccc(NC(=O)CCNc2cc(C)nc(NCCc3ccc(F)cc3)n2)cc1`, the 50% inhibitory concentration (IC50) was 850 nM.

Compound `CCN1CCN(c2cc(C)c3cc(NC(=O)c4cccc(C(F)(F)F)c4)ccc3n2)CC1` came in with a 50% inhibitory concentration (IC50) of 570 nM.

The compound `Clc1ccc(CNc2ccnc(NCCc3coc4ccccc34)n2)c(Cl)c1` displayed an IC50 of 1170 nM.

Compound `O=C(Nc1cccc(-c2nn3ccccc3c2-c2ccnc(Nc3ccc(-c4cc[nH]n4)cc3)n2)c1)c1c(F)cccc1F` registered an IC50 of 190 nM.

`Cc1ccccc1C1CCN(C2CCC(NC(=O)/C=C/c3ccc4c(c3)OC(F)(F)O4)CC2)CC1` (centres undefined) displayed an IC50 of 670 nM.

In turn, `CN1CCC(NCc2ccc(-c3ccc(S(=O)(=O)NC4CCC4)s3)cc2)CC1` yielded an IC50 of 850 nM.

In the case of `CCN(C)CCCn1c(N(C)C)nc2cc(-n3cnc4cc(-c5ccc(Cl)cc5)sc4c3=O)ccc21`, the IC50 came out at 1090 nM.
